Paper PMC2248166, “Quantitative peptide binding motifs for 19 human and mouse MHC class I molecules derived using positional scanning combinatorial peptide libraries” (Immunome Research, 2008)

How the values were obtained:
Type in all cases: binding
HLA A*6802 = HLA A*6802 (Homo sapiens, UniProt P04439, A269V/D140Y/D185E/E176V/E277Q/E87N/F33Y/G231S/I121R/I166T/I218V/L180W/L300P/L318F/N151K/P208A/P217A/Q86R/R138H/R169H/S129P/T345S/V36M)
HLA B*5301 = HLA B*5301 (Homo sapiens, UniProt P01889, A329T/A93T/A95T/C349S/D201E/D98Y/E176V/E187L/E204Q/E69T/G107R/I218V/K202T/L105A/L119I/N104I/Q94N/R106L/R155S/R180L/S101N/S121R/S35A/S48A/T118I/V127L/V306I/V36M/Y140S/Y91F)
HLA B*1503 = HLA B*1503 (Homo sapiens, UniProt P01889, A329T/A93T/A95T/C349S/D201E/D98Y/E187L/E204Q/K202T/N87E/Q94N/R155S/R180L/S121R/S35A/V306I/V36M/Y140S/Y91S); experiment: biochemical
HLA B*5801 = HLA B*5801 (Homo sapiens, UniProt P01889, A329T/C349S/D201E/D98Y/E176V/E187L/E204Q/E69T/G107R/I218V/I90N/K202T/L105A/L119I/N104I/N87E/Q89R/Q94S/R106L/R155S/R180L/R86G/S101N/S121R/S35A/S48A/T118I/V127L/V306I/V36M/Y140S/Y91M)
HLA B*5401 = HLA B*5401 (Homo sapiens, UniProt P01889, A329T/C349S/D138N/D201E/E176V/E187T/E204Q/E69G/I76V/K202T/L119W/R155S/R180L/S121T/S35A/S48A/V127L/V306I/V36M/Y140L)
HLA A*3001 = HLA A*3001 (Homo sapiens, UniProt P04439, D140H/D185E/E176W/F33S/G80R/H175R/K168Q/R138E/R41S); experiment: biochemical
HLA B*5802 = HLA B*5802 (Homo sapiens, UniProt P01889, A329T/C349S/D201E/D98Y/E176V/E187L/E204Q/E69T/G107R/I218V/I90N/K202T/L105A/N104I/N87E/Q89R/Q94S/R106L/R155S/R180L/R86G/S101N/S121W/S35A/S48A/V127L/V306I/V36M/Y140S/Y91M)
HLA B*0801 = HLA B*0801 (Homo sapiens, UniProt P01889, A93T/A95T/D138N/E176V/E187T/K202T/Q94N/R180D/S35A/V36M/Y33D/Y91F); experiment: biochemical
HLA B*1501 = HLA B*1501 (Homo sapiens, UniProt P01889, A329T/A93T/A95T/C349S/D201E/D98Y/E187L/E204Q/E69M/E70A/K202T/N87E/Q94N/R155S/R180W/S121R/S35A/S48A/V306I/V36M/Y140S/Y91S); experiment: biochemical
HLA B*5101 = HLA B*5101 (Homo sapiens, UniProt P01889, A329T/A93T/A95T/C349S/D138N/D201E/D98Y/E187L/E204Q/E69T/G107R/I218V/K202T/L105A/L119W/N104I/Q94N/R106L/R155S/R180L/S101N/S121T/S35A/S48A/V306I/V36M/Y195H/Y91F)
H-2 D^b = H-2 D^b (Mus musculus, UniProt P01899)
H-2 K^d = H-2 K^d (Mus musculus, UniProt P01902)
HLA A*3201 = HLA A*3201 (Homo sapiens, UniProt P04439, A270S/D101S/D185E/E176V/E277Q/F133L/G103R/G107R/G231S/H175R/I121M/I218V/I322F/K168Q/L105A/L300P/L318F/M331R/P208A/P217A/Q94H/R106L/R138Q/S129P/T104I/T323A/T345S/V100E/V321M/V358M); experiment: biochemical
H-2 K^k = H-2 K^k (Mus musculus, UniProt P04223)
HLA B*3501 = HLA B*3501 (Homo sapiens, UniProt P01889, A329T/A93T/A95T/C349S/D201E/D98Y/E176V/E187L/E204Q/E69T/I218V/K202T/L119I/Q94N/R155S/R180L/S121R/S35A/S48A/T118I/V127L/V306I/V36M/Y140S/Y91F)
H-2 D^d = H-2 D^d (Mus musculus, UniProt P01900)
H-2 D^d, sequence (P01900 whole entry, looked up): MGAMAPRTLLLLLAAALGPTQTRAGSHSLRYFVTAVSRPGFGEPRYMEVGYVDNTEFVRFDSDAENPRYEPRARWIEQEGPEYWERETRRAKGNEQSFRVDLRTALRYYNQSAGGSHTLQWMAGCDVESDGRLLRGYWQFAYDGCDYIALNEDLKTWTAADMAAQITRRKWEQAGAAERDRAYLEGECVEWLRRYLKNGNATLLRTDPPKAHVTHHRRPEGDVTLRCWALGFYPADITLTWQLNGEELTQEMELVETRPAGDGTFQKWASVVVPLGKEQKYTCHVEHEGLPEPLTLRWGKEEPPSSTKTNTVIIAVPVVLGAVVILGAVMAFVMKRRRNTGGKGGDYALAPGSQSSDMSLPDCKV

H-2 D^b, sequence (P01887 21-119): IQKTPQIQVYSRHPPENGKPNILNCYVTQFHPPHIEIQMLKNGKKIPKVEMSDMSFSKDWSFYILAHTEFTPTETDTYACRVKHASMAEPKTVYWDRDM
H-2 D^b, sequence (P01899 25-362): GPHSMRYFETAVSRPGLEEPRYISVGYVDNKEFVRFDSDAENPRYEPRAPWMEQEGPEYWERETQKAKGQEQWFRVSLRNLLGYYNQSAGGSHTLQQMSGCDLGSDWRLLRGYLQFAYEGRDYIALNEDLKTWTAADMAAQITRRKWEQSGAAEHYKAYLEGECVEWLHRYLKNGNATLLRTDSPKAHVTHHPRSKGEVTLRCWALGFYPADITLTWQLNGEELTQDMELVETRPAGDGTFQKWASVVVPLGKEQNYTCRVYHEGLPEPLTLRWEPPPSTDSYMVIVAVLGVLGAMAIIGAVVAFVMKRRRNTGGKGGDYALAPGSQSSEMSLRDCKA
H-2 K^k, sequence (P01887 21-119): as the sequence (P01887 21-119) above
H-2 K^k, sequence (P04223 22-369): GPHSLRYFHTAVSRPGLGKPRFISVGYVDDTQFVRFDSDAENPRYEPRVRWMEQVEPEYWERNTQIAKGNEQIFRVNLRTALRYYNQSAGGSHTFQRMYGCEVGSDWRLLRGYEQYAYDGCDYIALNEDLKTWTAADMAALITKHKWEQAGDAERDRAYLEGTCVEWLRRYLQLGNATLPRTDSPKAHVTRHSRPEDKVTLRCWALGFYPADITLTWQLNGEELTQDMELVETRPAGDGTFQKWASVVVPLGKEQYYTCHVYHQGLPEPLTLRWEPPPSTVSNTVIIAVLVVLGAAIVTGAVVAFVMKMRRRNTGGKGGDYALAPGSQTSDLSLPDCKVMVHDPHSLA
H-2 K^d, sequence (P01887 21-119): as the sequence (P01887 21-119) above
H-2 K^d, sequence (P01902 22-368): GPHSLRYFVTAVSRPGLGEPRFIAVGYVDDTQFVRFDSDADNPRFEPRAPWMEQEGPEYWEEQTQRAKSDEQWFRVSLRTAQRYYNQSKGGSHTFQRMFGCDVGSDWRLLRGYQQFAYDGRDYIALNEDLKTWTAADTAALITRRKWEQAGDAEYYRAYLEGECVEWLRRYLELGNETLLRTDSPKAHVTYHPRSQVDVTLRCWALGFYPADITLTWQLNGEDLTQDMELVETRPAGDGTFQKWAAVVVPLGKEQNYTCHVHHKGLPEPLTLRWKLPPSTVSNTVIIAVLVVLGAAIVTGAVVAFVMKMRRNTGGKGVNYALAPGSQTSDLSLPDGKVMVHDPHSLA

| Sequence | Normalized average relative binding affinity(ARB) (HLA A*6802) | Normalized average relative binding affinity(ARB) (HLA B*5301) | Normalized average relative binding affinity(ARB) (HLA B*1503) | Normalized average relative binding affinity(ARB) (HLA B*5801) | Normalized average relative binding affinity(ARB) (HLA B*5401) | Normalized average relative binding affinity(ARB) (HLA A*3001) | Normalized average relative binding affinity(ARB) (HLA B*5802) | Normalized average relative binding affinity(ARB) (HLA B*0801) | Normalized average relative binding affinity(ARB) (HLA B*1501) | Normalized average relative binding affinity(ARB) (HLA B*5101) | Normalized average relative binding affinity(ARB) (H-2 D^b) | Normalized average relative binding affinity(ARB) (H-2 K^d) | Normalized average relative binding affinity(ARB) (HLA A*3201) | Normalized average relative binding affinity(ARB) (H-2 K^k) | Normalized average relative binding affinity(ARB) (HLA B*3501) | Normalized average relative binding affinity(ARB) (H-2 D^d) |
| --- | --- | --- | --- | --- | --- | --- | --- | --- | --- | --- | --- | --- | --- | --- | --- | --- |
| XXXXWXXXX [3064.0099] | 0.26 | 0.074 | 0.44 | 0.30 | 0.14 | 0.16 | 1.0 | 0.023 | 0.49 | 0.19 | 0.013 | 0.21 | 0.65 | 1.0 | 0.29 | 0.098 |
| XXXXXAXXX [3064.0101] | 0.82 | 0.65 | 0.45 | 0.28 | 0.20 | 0.34 | 0.91 | 0.011 | 0.30 | 0.43 | 0.62 | 0.26 | 0.83 | 0.83 | 0.21 | 0.51 |
| XXXXXCXXX [3064.0102] | 0.44 | 0.13 | 0.096 | 0.17 | 0.10 | 0.13 | 0.38 | 0.039 | 0.40 | 0.26 | 0.66 | 0.26 | 0.19 | 0.40 | 0.15 | 0.43 |
| XXXXXDXXX [3064.0103] | 0.69 | 0.15 | 0.19 | 0.36 | 0.045 | 0.016 | 0.15 | 0.0089 | 0.18 | 0.064 | 0.29 | 0.066 | 0.16 | 0.37 | 0.13 | 0.29 |
